# Results taken from patent publication US20220048915A1 (SHANGHAI PHARMACEUTICALS HOLDING CO., LTD., priority 2018, published 2022).
# pIC50: −log10 of the molar value. “And” between values parts separate entries of the source, which are not always exact repeats. Equal values may be shown once.
# Experiments:
# [1] = Pharmacokinetic properties in mice; type: in vivo, ICR mice; details: for absorption compared with the positive compound VX-745 at the same dose: 10 mg/kg; for Cmax / MRT / Tmax / AUClast (po): po 10 mg/kg; for BA: po 10 mg/kg vs iv 3 mg/kg; for AUClast (po): 5-1440 minutes
# Method: Forty-eight male ICR mice, weighing 18-22 g (provided by Shanghai Xipuerbikai Laboratory Animal Co., Ltd, Certificate No.: 20130016008116). The mice were […] for 12-16 hours before the experiment but water was allowed.
# Blood samples were collected from the fundus vein of mice before and at 2, 5, 15, 30, 60, 90, 120, 240, 480, 600, and 1440 minutes of the administration, respectively.
# Blood samples were collected from the fundus vein of mice before and at 5, 15, 30, 60, 90, 120, 240, 480 and 1440 minutes of administration, respectively.
# 2-3 time points were taken for each mouse. The mice were sacrificed at 5, 15, 30, 60 and 1440 minutes after the administration (3 mice per time point), and the brains were taken, rinsed with saline, dried on filter paper and weighed.
# (§1) Blood samples were centrifuged at 8000 rpm for 5 minutes, and supernatant plasma was taken. To 50 μL of plasma samples was added 300 μL of acetonitrile containing internal standard (propranolol, 25 ng/mL) to precipitate the protein. After vortexing for 10 minutes and centrifuging at 6000 g and 4° C. for 10 minutes, the supernatant was taken and placed in a 96-well plate for determination of drug concentration in plasma by UPLC/MS-MS.
# p38β = p38β (Homo sapiens, UniProt Q15759); assay: In vitro inhibition of p38 kinase (LANCE Ultra TR-FRET); type: biochemical; details: read-out: Kinase in vitro IC50(nM) p38β
# BV-2 cells = assay: Inhibition of inflammation in LPS-stimulated BV-2 cells (ELISA of inflammatory factors); type: cell-based; details: Mus musculus, 100 ng/mL LPS 4 hours; for Emax: read-out: BV-2 Max Inh. (%); for pIC50: read-out: BV-2 Rf IC50
# Method: Normal cultured 8th passage BV-2 cells were taken, and inoculated separately in 96-well plates at a certain cell density. The cell culture plates were cultured at 37° C. and 5% CO2 for 24 hours.
# After inoculating the plate for 24 hours, the cell culture medium was removed, and then 100 μL of a 4-fold gradient dilution compound starting from 10,000 nM prepared in DMEM+10% FBS, where High control and Low control contained 0.1% DMSO without compound. With 100 μL per well, the cell culture plate was cultured at 37° C. with 5% CO2 for one hour.
# The compound-containing cultures were removed. 100 ng/mL of LPS was prepared with DMEM+10% FBS culture medium, and then the compound was diluted in a 4-fold gradient from 10,000 nM with LPS-containing culture medium. In low control, the compound was replaced with 0.1% DMSO. In High control, 0.1% DMSO was prepared with culture medium without LPS. 100 μL per well, and the cell culture plates were cultured at 37° C. with 5% CO2 for 4 hours.
# After 4 hours of LPS stimulation, 110 μL of the culture solution was aspirated, and centrifuged at 2000 rpm for 2 minutes. A further 90 μl of supernatant was aspirated and immediately put into −20° C. for freezing.
# ELISA kits were used to detect the expression of inflammatory factors such as IL-10, TNFα, etc. The OD450 signal values were measured by microplate reader. The in vitro inhibitory activity of the compounds was calculated according to the following formula: Inhibition rate: Inhibition rate (%)=(signal value of control−signal value of administration)/(high signal value of control−low signal value of control)×100%. And according to the inhibition rate of each concentration, Graphpad Prism 5.0 was used to curve fit the […] signal values at each concentration and calculate the corresponding IC50, which is shown in Table 1.
# p38γ = biological target: T1, p38γ (Homo sapiens, UniProt P53778); assay: In vitro inhibition of p38 kinase (LANCE Ultra TR-FRET); type: biochemical; details: read-out: Kinase in vitro IC50(nM) p38γ
# T1 sequence (P53778 1-367): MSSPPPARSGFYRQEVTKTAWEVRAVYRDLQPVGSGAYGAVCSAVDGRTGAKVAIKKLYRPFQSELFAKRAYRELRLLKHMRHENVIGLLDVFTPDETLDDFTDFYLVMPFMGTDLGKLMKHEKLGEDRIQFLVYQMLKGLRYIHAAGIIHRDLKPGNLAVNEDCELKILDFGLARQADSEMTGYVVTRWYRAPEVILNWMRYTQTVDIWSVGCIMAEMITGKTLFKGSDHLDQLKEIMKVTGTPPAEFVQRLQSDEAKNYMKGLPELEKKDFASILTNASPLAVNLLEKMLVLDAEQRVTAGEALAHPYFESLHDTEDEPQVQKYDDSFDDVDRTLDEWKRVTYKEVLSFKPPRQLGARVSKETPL
# Method: 10 mM of the storage solution of the test compound was taken and placed in a 96-well compound plate, and using DMSO for the compound at an initial concentration of 100×, which was then used as the first concentration and then carried out a 3-fold gradient dilution with DMSO for a total of 10 concentrations. After that, 1 μL of gradient dilutions were added to 19 μL of 1× reaction buffer to prepare 5× compound for later use. […] To the compound-free control well was added 2 μL of the following liquid: 19 μL of 1× reaction buffer with addition of 1 μL of DMSO. To the Min control well was added 2 μL of 250 mM EDTA.
# 1× of LANCE® Detection value Buffer was used to prepare a 2×Antibody for use, and the amount was 5 μL per well, at the same time 10 mM EDTA was prepared for later use. After the enzyme reaction was carried out for 30 minutes, 5 μL 10 mM EDTA was added to the 384-well plate and the reaction was carried out at room temperature for 5 minutes. Afterwards, 5 μL LANCE® Ultra Europium-anti-phospho-eIF4E-binding protein 1 (Thr37/46) was added to the 384-well plate and the reaction was carried out at room temperature for one hour.
# p38α = p38α (Homo sapiens, UniProt Q16539); assay: as above; type: biochemical; details: read-out: Kinase in vitro IC50(nM) p38α
# p38 kinase = details: CN108349964A, Table 7 on page 74; read-out: IC50 grade for the inhibitory activity of p38 kinase; cited from earlier work
# [2] = Pharmacokinetic properties in rats; type: in vivo, SD rats; details: for Cmax / MRT / Tmax / AUClast (po): po 6 mg/kg; for BA: po 6 mg/kg vs iv 3 mg/kg; for AUClast (po): 5-1440 minutes; for absorption compared with the positive compound VX-745 at the same dose: rats, 6 mg/kg
# Method: Ten male SD rats, weighing 180-220 g (provided by Shanghai Xipuerbikai Laboratory Animal Co., Ltd, Certificate No.: 20130016008116). The rats were fasted for feed for 12-16 hours before the experiment but water was allowed.
# Blood samples were collected from the fundus vein of rats before and at 2, 5, 15, 30, 60, 90, 120, 240, 360, 480, 600 and 1440 minutes after administration, respectively.
# Blood samples were collected from the fundus vein of rats before and at 5, 15, 30, 60, 90, 120, 240, 360, 480, 600, 1440 minutes after administration respectively.
# as §1
# TNF-α = assay: Lipopolysaccharide (LPS)-induced inflammation model in mice, TNF-α in serum by ELISA; type: in vivo, C57BL/6J mice
# Method: Male SPF-grade C57BL/6J mice, 6-8 weeks old, provided by Shanghai Ling Chang Biotechnology Co., Ltd. Animals were housed in clean-grade plastic cages (light and dark cycle 12/12 hours, temperature 22±2° C., humidity 50±10%, pellet feed, free drinking water).
# 1. Mice were weighed and administered according to an administration volume of 10 mL/kg, and oral administration by gavage was given for the first time. Each mouse was administrated at an interval of 3 minutes.
# 2. One hour after the first administration, LPS 5 mpk was administered intraperitoneally at an administration volume of 10 mL/kg.
# 3. 4 hours after the first administration, a second oral administration by gavage was given according to the administration volume of 10 mL/kg.
# 4. 6 hours after LPS intraperitoneal injection, mice were sacrificed, serum and cerebral cortex and hippocampus were sampled. After weighing the wet weight and they were put into liquid nitrogen for quick-freezing and storage.
# Chain of p38β (Q15759 whole entry): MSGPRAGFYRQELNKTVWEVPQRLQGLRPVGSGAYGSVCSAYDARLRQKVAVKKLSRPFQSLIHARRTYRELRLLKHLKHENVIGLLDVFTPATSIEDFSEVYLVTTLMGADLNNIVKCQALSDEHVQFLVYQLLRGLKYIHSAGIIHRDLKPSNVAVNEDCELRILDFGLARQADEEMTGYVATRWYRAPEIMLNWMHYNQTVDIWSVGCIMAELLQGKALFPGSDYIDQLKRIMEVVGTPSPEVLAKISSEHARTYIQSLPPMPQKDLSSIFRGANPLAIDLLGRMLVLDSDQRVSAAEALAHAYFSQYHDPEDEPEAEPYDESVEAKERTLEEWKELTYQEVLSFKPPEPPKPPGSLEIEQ
# Chain of p38α (Q16539 whole entry): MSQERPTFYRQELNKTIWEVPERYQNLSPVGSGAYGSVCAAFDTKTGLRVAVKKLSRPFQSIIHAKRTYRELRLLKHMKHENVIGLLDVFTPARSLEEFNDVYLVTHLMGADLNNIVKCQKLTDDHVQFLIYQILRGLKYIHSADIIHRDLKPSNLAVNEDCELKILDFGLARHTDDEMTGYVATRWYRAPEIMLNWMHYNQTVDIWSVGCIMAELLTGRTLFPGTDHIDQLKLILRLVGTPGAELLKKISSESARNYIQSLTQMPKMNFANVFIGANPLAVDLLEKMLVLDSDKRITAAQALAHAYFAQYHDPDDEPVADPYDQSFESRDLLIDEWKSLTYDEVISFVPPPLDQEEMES
Structure (SMILES),absorption compared with the positive compound VX-745 at the same dose [1],Thalf (iv) ([1]; iv 3 mg/kg),"Cmax ([1]; male, ICR, mouse, plasma)","MRT ([1]; male, ICR, mouse, plasma)","Tmax ([1]; male, ICR, mouse, plasma)",BA [1],AUClast (po) [1],IC50 (p38β),Emax (BV-2 cells),pIC50 (BV-2 cells),IC50 (p38γ),IC50 (p38α),"Cmax ([2]; male, SD, plasma, rat)","MRT ([2]; male, SD, plasma, rat)","Tmax ([2]; male, SD, plasma, rat)","Thalf (iv) ([2]; rat, iv 3 mg/kg)",BA ([2]; rat),AUClast (po) ([2]; rat),further results
"O=c1ncn2nc(Oc3ccc(F)cc3F)ccc2c1-c1c(F)cccc1Cl [Compound I-62, 5-(2-chloro-6-fluorophenyl)-2-(2,4-difluorophenoxy)-6H-pyrimido[1,6-b]pyridazin-6-one]",better,3.32 h,1.6 µg/mL,3.18 h,1 h,103.4%,4522 (h)*(ng/mL),101 nM,48.6%,7.85,> 3330 nM,12.1 nM,–,–,–,–,–,–,–
O=c1ncn2nc(Sc3ccc(F)cc3)ccc2c1-c1c(Cl)cccc1Cl [compound 12],–,–,–,–,–,–,–,–,–,–,–,–,–,–,–,–,–,–,pIC50 (p38 kinase): 6.00 to 7.00
"O=c1ncn2nc(Oc3ccc(F)cc3)ccc2c1-c1c(Cl)cccc1Cl [Compound I-19, 5-(2,6-dichlorophenyl)-2-(4-fluorophenoxy)-6H-pyrimido[1,6-b]pyridazin-6-one]",significantly higher,3.73 h,1.81 µg/mL,5.55 h,1.33 h,158.7%,11457 (h)*(ng/mL),391 nM,61.7%,7.27,> 3330 nM,22.4 nM,1.09 µg/mL,5.73 h,3 h,2.81 h,87.87%,7172 (h)*(ng/mL),absorption compared with the positive compound VX-745 at the same dose [2]: significantly higher
O=c1ncn2nc(Oc3cc(F)c(F)cc3F)ccc2c1-c1c(Cl)cccc1Cl [Compound I-43],better,2.97 h,1.28 µg/mL,4.34 h,2 h,89.17%,6540 (h)*(ng/mL),95.1 nM,50.9%,7.67,> 3330 nM,10.7 nM,0.601 µg/mL,4.7 h,4 h,3.7 h,123.3%,2994 (h)*(ng/mL),absorption compared with the positive compound VX-745 at the same dose [2]: better
"O=c1ncn2nc(Sc3ccc(F)cc3F)ccc2c1-c1c(Cl)cccc1Cl [VX-745, reference compound]",–,3.9 h,0.75 µg/mL,3.2 h,0.8 h,20.2%,1844 (h)*(ng/mL),–,99.7%,8.37,–,–,0.477 µg/mL,4.3 h,0.8 h,5.2 h,41.2%,1644.5 (h)*(ng/mL),"clearance ([1]; male, ICR, mouse, plasma, iv 3 mg/kg): 1.1 L/h/kg; Vd ([1]; male, ICR, mouse, plasma, iv 3 mg/kg, read-out: Vss (iv)): 2.3 L/kg; levels of TNF-α compared with the mouse inflammation model group (G2) (TNF-α; 8 mpk, P<0.01): significantly reduced; TNF-α conc. (TNF-α; serum, individual animals, 8 mg/kg po bid interval 4 h, 6 hours after LPS 5 mpk ip): 142.0 pg/mL and 151.7 pg/mL and 105.5 pg/mL and 155.5 pg/mL and 55.4 pg/mL and 105.7 pg/mL and 54.3 pg/mL and 71.2 pg/mL and 24.0 pg/mL and 155.2 pg/mL; clearance ([2]; male, SD, plasma, rat, iv 3 mg/kg): 1.5 L/h/kg; Vd ([2]; male, SD, plasma, rat, iv 3 mg/kg, read-out: Vss (iv)): 4.5 L/kg"
"O=c1ncn2nc(Oc3ccc(Cl)cc3Cl)ccc2c1-c1c(Cl)cccc1Cl [Compound I-20, 2-(2,4-dichlorophenoxy)-5-(2,6-dichlorophenyl)-6H-pyrimido[1,6-b]pyridazin-6-one]",–,–,–,–,–,–,–,96 nM,-60%,7.63,> 3330 nM,17.6 nM,–,–,–,–,–,–,–
"O=c1ncn2nc(Oc3ccc(Br)cc3)ccc2c1-c1c(Cl)cccc1Cl [Compound I-39, 2-(4-bromophenoxy)-5-(2,6-dichlorophenyl)-6H-pyrimido[1,6-b]pyridazin-6-one]",–,–,–,–,–,–,–,602 nM,56.6%,6.53,> 3330 nM,35.6 nM,–,–,–,–,–,–,–
"O=c1ncn2nc(Oc3cccc(Br)c3)ccc2c1-c1c(Cl)cccc1Cl [Compound I-10, 2-(3-bromophenoxy)-5-(2,6-dichlorophenyl)-6H-pyrimido[1,6-b]pyridazin-6-one]",–,–,–,–,–,–,–,434 nM,-60%,7.12,> 3330 nM,60.6 nM,–,–,–,–,–,–,–
